Data reported in patent US10508109B2 (priority 2015, dated 2019).
Structures can show the parent of a compound that is named as a salt. Where two headings read alike, the source gives them in different places.

What was measured:
A549 = assay: Cell-based assay, anti-proliferative activity (Cell Counting Kit-8, 72 hours); details: read-out: IC50 (μM) A549
How it was run: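 Cells were seeded in 96-well plates and exposed to candidate inhibitors. Cellular growth was then determined with the colorimetric kit, and IC50 values were calculated from the growth data.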

SUV39H2 = SUV39H2 (Homo sapiens (Human), UniProt Q9H5I1); details: read-out: IC50 (μM) Suv 39H2 assay
SUV39H2, sequence (Q9H5I1 whole entry): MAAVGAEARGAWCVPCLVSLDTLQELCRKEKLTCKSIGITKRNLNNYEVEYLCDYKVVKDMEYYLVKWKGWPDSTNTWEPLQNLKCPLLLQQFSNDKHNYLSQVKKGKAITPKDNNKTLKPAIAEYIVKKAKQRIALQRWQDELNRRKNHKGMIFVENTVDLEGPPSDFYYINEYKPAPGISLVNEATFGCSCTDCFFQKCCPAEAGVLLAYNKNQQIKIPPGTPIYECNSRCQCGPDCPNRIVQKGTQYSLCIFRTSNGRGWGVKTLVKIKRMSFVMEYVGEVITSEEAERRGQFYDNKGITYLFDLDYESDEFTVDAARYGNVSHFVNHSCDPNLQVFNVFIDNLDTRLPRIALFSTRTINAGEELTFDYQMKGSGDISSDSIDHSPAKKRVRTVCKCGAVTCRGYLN

HFL1 = assay: Cell-based assay, anti-proliferative activity (Cell Counting Kit-8, 72 hours); details: read-out: IC50 (μM) HFL1
How it was run: (§1)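 Cells seeded at 2,000–3,000 per well and exposed 72 h to compound at 0–100 micro-M (2-fold series). Growth measured with CCK-8; IC50 taken as anti-proliferative indicator.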

CCD-18Co = assay: as above; details: read-out: IC50 (μM) CCD-18Co
How it was run: as §1

HCT-116 = assay: as above; details: read-out: IC50 (μM) HCT-116
How it was run: as §1

PC14 = assay: as above; details: read-out: IC50 (μM) PC14
How it was run: as §1

[1] = Homo sapiens, A549 cells, 72 hours, Cell Counting Kit-8
[2] = Homo sapiens, HFL1 cells, 72 hours, Cell Counting Kit-8
[3] = Homo sapiens, CCD-18Co cells, 72 hours, Cell Counting Kit-8
[4] = Homo sapiens, HCT-116 cells, 72 hours, Cell Counting Kit-8
[5] = Homo sapiens, PC-14, PC14 cells, 72 hours, Cell Counting Kit-8
[6] = Homo sapiens, A549 cells, Cell Counting Kit-8, 72 hours
[7] = Homo sapiens, HFL1 cells, Cell Counting Kit-8, 72 hours
[8] = Homo sapiens, CCD-18Co cells, Cell Counting Kit-8, 72 hours
[9] = Homo sapiens, HCT-116 cells, Cell Counting Kit-8, 72 hours
[10] = Homo sapiens, PC-14, PC14 cells, Cell Counting Kit-8, 72 hours

Compound	IC50 (SUV39H2; enzyme assay) [µM]	IC50 (A549; [6]) [µM]	IC50 (HFL1; [7]) [µM]	IC50 (CCD-18Co; [8]) [µM]	IC50 (HCT-116; [9]) [µM]	other results
1-(4-(2-(5-chloro-2-(3-(dimethylamino)propoxy)-4-methoxyphenyl)-imidazo[1,2-a]pyridin-7-yl)piperazin-1-yl)-2,2-dimethylpropan-1-one [Example 154]	0.0135					IC50 (A549; A549 cells, Cell Counting Kit-8, 72 hours): 6.9 µM; IC50 (HFL1; HFL1 cells, Cell Counting Kit-8, 72 hours): 4.3 µM; IC50 (CCD-18Co; CCD-18Co cells, Cell Counting Kit-8, 72 hours): 8.7 µM; IC50 (HCT-116; HCT-116 cells, Cell Counting Kit-8, 72 hours): 7.9 µM; IC50 (PC14; PC14 cells, Cell Counting Kit-8, 72 hours): 8 µM
4-(2-(5-chloro-2,4-dimethoxyphenyl)imidazo[1,2-a]pyridin-7-yl)-N-(pyrrolidin-2-ylmethyl)benzamide [Example 249]	0.035					IC50 (A549; A549 cells, 72 hours, Cell Counting Kit-8): 5.4 µM; IC50 (HFL1; HFL1 cells, 72 hours, Cell Counting Kit-8): 5.4 µM; IC50 (CCD-18Co; CCD-18Co cells, 72 hours, Cell Counting Kit-8): 5.2 µM; IC50 (HCT-116; HCT-116 cells, 72 hours, Cell Counting Kit-8): 3.7 µM; IC50 (PC14; PC14 cells, 72 hours, Cell Counting Kit-8): 4.8 µM
COc1cc(OC)c(-c2cn3ccc(NC(=O)C(N)CCCCN)cc3n2)cc1Cl (stereo in doubt) [Example 247, (S)-2,6-diamino-N-(2-(5-chloro-2,4-dimethoxyphenyl)imidazo[1,2-a]-pyridin-7-yl)hexanamide]						IC50 (A549; [1]): 10 µM; IC50 (HFL1; [2]): 10 µM; IC50 (CCD-18Co; [3]): 10 µM; IC50 (HCT-116; [4]): 10 µM; IC50 (PC14; [5]): 5.7 µM
COc1cc(OC)c(-c2cn3ccc(N4CCCC4)nc3n2)cc1Br [Example 3, 2-(5-bromo-2,4-dimethoxyphenyl)-7-(pyrrolidin-1-yl)imidazo[1,2-a]pyrimidine]	0.00858	11	7.4	6.8	8.1	IC50 (PC14; [10]): 7.1 µM
COc1cc(OC)c(-c2cn3ccc(N4CCCC4)cc3n2)cc1Cl [Example 4, 2-(5-chloro-2,4-dimethoxyphenyl)-7-(pyrrolidin-1-yl)imidazo[1,2-a]pyridine hydrobromide]	0.0031	2	1.4	1.1	1.5	IC50 (PC14; [10]): 1.4 µM
CNc1ccn2cc(-c3cc(Cl)c(OC)cc3OC)nc2c1 [Example 6, 2-(5-chloro-2,4-dimethoxyphenyl)-N-methylimidazo[1,2-a]pyridin-7-amine hydrobromide]	0.00943					IC50 (A549; Homo sapiens, A549, 72 h): 2.2 µM; IC50 (HFL1; Homo sapiens, HFL1, 72 h): 1 µM; IC50 (CCD-18Co; Homo sapiens, CCD-18Co, 72 h): 2.7 µM; IC50 (HCT-116; Homo sapiens, HCT-116, 72 h): 1.7 µM; IC50 (PC14; Homo sapiens, PC-14, 72 h): 1.4 µM
COc1cc(OC)c(-c2cn3ccc(N4CCC(O)C4)cc3n2)cc1Br (stereo not shown) [Example 7, 1-(2-(5-bromo-2,4-dimethoxyphenyl)imidazo[1,2-a]pyridin-7-yl)pyrrolidin-3-ol]	0.00544					IC50 (A549; Homo sapiens, A549, 72 h): 6.9 µM; IC50 (HFL1; Homo sapiens, HFL1, 72 h): 6.8 µM; IC50 (CCD-18Co; Homo sapiens, CCD-18Co, 72 h): 7.6 µM; IC50 (HCT-116; Homo sapiens, HCT-116, 72 h): 7 µM; IC50 (PC14; Homo sapiens, PC-14, 72 h): 6.1 µM
COc1cc(OC)c(-c2cn3ccc(N4CCCC4)nc3n2)cc1Cl [Example 9, 2-(5-chloro-2,4-dimethoxyphenyl)-7-(pyrrolidin-1-yl)imidazo-[1,2-a]pyrimidine hydrobromide]	0.00608	8	7.1	8	6.8	IC50 (PC14; [10]): 6.3 µM
COc1cc(OC)c(-c2cn3ccc(C4CCNCC4)cc3n2)cc1Cl [Example 112, 2-(5-chloro-2,4-dimethoxyphenyl)-7-(piperidin-4-yl)imidazo[1,2-a]pyridine]	0.0623	6.3	6.7	8.8	7.5	
COc1cc(OC)c(-c2cn3ccc(C4=CCN(CCF)CC4)cc3n2)cc1Cl [Example 113, 2-(5-chloro-2,4-dimethoxyphenyl)-7-(1-(2-fluoroethyl)-1,2,3,6-tetrahydropyridin-4-yl)imidazo[1,2-a]pyridine]	0.0571	6.7	5.2	7.6	6.7	
COc1cc(OC)c(-c2cn3cc(CCCCN)c(N4CCOCC4)cc3n2)cc1Cl [Example 114, 4-(2-(5-chloro-2,4-dimethoxyphenyl)-7-morpholinoimidazo[1,2-a]pyridin-6-yl)butan-1-amine]	0.0502	8.7	6.2	8.9	7.9	
COc1cc(OC)c(-c2cn3cc(N4CCNCC4)ccc3n2)cc1Cl [Example 115, 2-(5-chloro-2,4-dimethoxyphenyl)-6-(piperazin-1-yl)imidazo[1,2-a]-pyridine hydrochloride]						IC50 (A549; Homo sapiens, A549, 72 h): 9.4 µM; IC50 (SUV39H2): 0.0179 µM; IC50 (HFL1; Homo sapiens, HFL1, 72 h): 8.4 µM; IC50 (CCD-18Co; Homo sapiens, CCD-18Co, 72 h): 13 µM; IC50 (HCT-116; Homo sapiens, HCT-116, 72 h): 7.7 µM
COCCCN1CC=C(c2ccn3cc(-c4cc(Cl)c(OC)cc4OC)nc3c2)CC1 [Example 116, 2-(5-Chloro-2,4-dimethoxyphenyl)-7-(1-(3-methoxypropyl)-1,2,3,6-tetrahydropyridin-4-yl)imidazo[1,2-a]pyridine]	0.0738	6.1	6.6	11	7	
COc1cc(OC)c(-c2cn3ccc(C4=CCC5(CC4)OCCO5)cc3n2)cc1Cl [Example 117, 2-(5-chloro-2,4-dimethoxyphenyl)-7-(1,4-dioxaspiro[4.5]dec-7-en-8-yl)-imidazo[1,2-a]pyridine]	0.0633	3.5	5.2	7.7	3	
COc1cc(OC)c(-c2cn3ccc(C4=CCOCC4)cc3n2)cc1Cl [Example 118, 2-(5-chloro-2,4-dimethoxyphenyl)-7-(3,6-dihydro-2H-pyran-4-yl)-imidazo[1,2-a]pyridine]	0.0661	6.9	6.9	11	9.1	
COc1cc(OC)c(-c2cn3ccc(C4CCC(=O)CC4)cc3n2)cc1Cl [Example 119, 4-(2-(5-chloro-2,4-dimethoxyphenyl)imidazo[1,2-a]pyridin-7-yl)-cyclohexanone]	0.0429					IC50 (A549; Homo sapiens, A549, 72 h): 5.8 µM; IC50 (HFL1; Homo sapiens, HFL1, 72 h): 3.5 µM; IC50 (CCD-18Co; Homo sapiens, CCD-18Co, 72 h): 3.6 µM; IC50 (HCT-116; Homo sapiens, HCT-116, 72 h): 9.7 µM
COc1cc(OC)c(-c2cn3ccc(C4=CCN(C(C)=O)CC4)cc3n2)cc1Cl [Example 120, 1-(4-(2-(5-chloro-2,4-dimethoxyphenyl)imidazo[1,2-a]pyridin-7-yl)-5,6-dihydropyridin-1(2H)-yl)ethanone]	0.0364	6.5	7.6	6.8	6.6	
COc1cc(OC)c(-c2cn3cc(N4CCC(N)CC4)ccc3n2)cc1Cl [Example 121, 1-(2-(5-chloro-2,4-dimethoxyphenyl)imidazo[1,2-a]pyridin-6-yl)piperidin-4-amine]	0.0514	8.1	6.8	6.8	18	
CNCC(=O)Nc1ccc(-c2ccn3cc(-c4cc(Cl)c(OC)cc4OC)nc3c2)cc1 [Example 273, N-(4-(2-(5-chloro-2,4-dimethoxyphenyl)imidazo[1,2-a]pyridin-7-yl)phenyl)-2-(methylamino)acetamide hydrochloride]						IC50 (A549; Homo sapiens, A549, 72 h): 1.5 µM; IC50 (HFL1; Homo sapiens, HFL1, 72 h): 1.2 µM; IC50 (CCD-18Co; Homo sapiens, CCD-18Co, 72 h): 1.1 µM; IC50 (HCT-116; Homo sapiens, HCT-116, 72 h): 0.86 µM; IC50 (PC14; Homo sapiens, PC-14, 72 h): 1.1 µM
COc1cc(OC)c(-c2cn3ccc(-c4ccc(C(=O)[C@H](C)N)cc4)cc3n2)cc1Cl [Example 274, (S)-2-amino-1-(4-(2-(5-chloro-2,4-dimethoxyphenyl)imidazo[1,2-a]-pyridin-7-yl)phenyl)propan-1-one hydrochloride]						IC50 (A549; Homo sapiens, A549, 72 h): 1.2 µM; IC50 (HFL1; [2]): 1.4 µM; IC50 (CCD-18Co; [3]): 1.5 µM; IC50 (HCT-116; [4]): 1.6 µM; IC50 (PC14; [5]): 0.74 µM
COc1cc(OC)c(-c2cn3ccc(N4CC[C@H](NCc5ccncc5)C4)cc3n2)cc1Cl [Example 298, (S)-1-(2-(5-chloro-2,4-dimethoxyphenyl)imidazo[1,2-a]pyridin-7-yl)-N-(pyridin-4-ylmethyl)pyrrolidin-3-amine trihydrochloride]						IC50 (A549; [1]): 0.67 µM; IC50 (HFL1; [2]): 0.84 µM; IC50 (CCD-18Co; [3]): 1.4 µM; IC50 (HCT-116; [4]): 0.5 µM; IC50 (PC14; [5]): 0.79 µM
